What is called pEC50 is −log10 of the EC50, conventionally taken in molar units. A higher pEC50 goes with a low EC50.

Results on one compound are retold here after article PMC2803041 (Nature, 2009).

SMILES strings stand for the structures. pEC50: −log10 of the molar value.

The target of one assay is T1, His-PYR1 with GST-ABI1 (Arabidopsis thaliana, UniProt O49686).
T1 sequence (O49686 1-191): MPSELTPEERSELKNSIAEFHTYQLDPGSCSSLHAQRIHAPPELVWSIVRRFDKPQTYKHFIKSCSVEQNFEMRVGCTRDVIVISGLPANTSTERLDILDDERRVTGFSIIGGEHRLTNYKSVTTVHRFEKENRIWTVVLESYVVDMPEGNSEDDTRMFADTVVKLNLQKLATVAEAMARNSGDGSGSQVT
T1 sequence (P49597 1-434 partner): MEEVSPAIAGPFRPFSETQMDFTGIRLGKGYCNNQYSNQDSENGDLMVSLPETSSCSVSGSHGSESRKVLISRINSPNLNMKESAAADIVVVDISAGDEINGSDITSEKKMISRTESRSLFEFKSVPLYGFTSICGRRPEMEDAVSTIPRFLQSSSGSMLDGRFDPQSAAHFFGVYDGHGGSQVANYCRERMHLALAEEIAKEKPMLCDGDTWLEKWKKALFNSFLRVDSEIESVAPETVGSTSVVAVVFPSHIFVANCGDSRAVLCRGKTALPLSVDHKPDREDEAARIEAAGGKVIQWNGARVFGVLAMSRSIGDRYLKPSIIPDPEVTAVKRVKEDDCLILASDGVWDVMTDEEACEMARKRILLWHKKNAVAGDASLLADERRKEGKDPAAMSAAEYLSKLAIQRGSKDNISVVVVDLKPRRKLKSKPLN
Put plainly: in vitro reconstitution, radiometric kinase assay. Format: biochemical.

The target of a further assay is T2, His-PYR1 with GST-HAB1 (Arabidopsis thaliana, UniProt O49686).
T2 sequence (O49686 1-191): T1 sequence (O49686 1-191)
T2 sequence (Q9CAJ0 1-511 partner): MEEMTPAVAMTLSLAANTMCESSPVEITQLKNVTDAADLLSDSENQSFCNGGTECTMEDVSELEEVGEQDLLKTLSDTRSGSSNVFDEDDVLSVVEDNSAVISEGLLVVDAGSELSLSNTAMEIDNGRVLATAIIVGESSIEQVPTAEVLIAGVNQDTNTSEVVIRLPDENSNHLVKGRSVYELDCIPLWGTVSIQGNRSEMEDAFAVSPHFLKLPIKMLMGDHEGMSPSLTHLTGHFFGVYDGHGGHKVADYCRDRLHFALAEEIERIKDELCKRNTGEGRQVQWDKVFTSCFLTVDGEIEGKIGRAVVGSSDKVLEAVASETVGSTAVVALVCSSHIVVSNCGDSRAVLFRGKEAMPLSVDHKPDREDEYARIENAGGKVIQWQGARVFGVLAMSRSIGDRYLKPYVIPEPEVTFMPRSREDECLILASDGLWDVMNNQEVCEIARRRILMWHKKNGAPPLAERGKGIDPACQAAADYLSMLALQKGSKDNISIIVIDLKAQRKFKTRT
Description: in vitro reconstitution, radiometric kinase assay. Format: biochemical. The following applies: HAB1 in place of ABI1.

Turning to `CC1=CC(=O)CC(C)(C)C1(O)/C=C/C(C)=C\C(=O)O` (stereo in doubt) [(+)-ABA], the pEC50 at His-PYR1 with GST-ABI1 was 6.10. For the same compound, the “in vitro reconstitution, radiometric kinase assay” value on His-PYR1 with GST-HAB1 was “reconstitution was also achieved when the PP2C protein HAB1 was used instead of ABI1”.
